Source: PubChem BioAssay AID434923 (Broad Institute, 2010)
Results filed as inconclusive are left out. The source made the active and inactive calls.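 How the source made its calls: active means fitted EC50 at most tenfold above the highest tested dose; inconclusive means flat fit with 30 to 70% signal loss, or poor fit; inactive means the rest.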

test system: NIH-3T3 fibroblasts viability, Alamar Blue fluorescence, 48 h; assay: NIH-3T3 fibroblast cytotoxicity, dose response, cytotoxicity control for reversing antifungal drug resistance, cell-based, Alamar Blue fluorescence (AID 434923)

| Compound | EC50 |
| --- | --- |
| Clc1ccc2c(c1)C(c1cccs1)=NNC(c1cccnc1)=N2 | > 26 µM (inactive) |
| COc1ccc(-c2nnc(NC(=O)c3ccc(F)cc3)o2)cc1 | > 26 µM (inactive) |
| CCCC(=O)NC(c1ccccc1)c1ccc2cccnc2c1O (stereo not given) | > 26 µM (inactive) |
| O=C(Nc1nnc(CCc2ccccc2)s1)c1ccco1 | > 26 µM (inactive) |
| COc1ccc(-n2nc(C(=O)NCC(=O)N3CCN(c4ccccc4)CC3)c3ccccc3c2=O)c(OC)c1 | > 26 µM (inactive) |
| CCOC(=O)N1C(=O)C2(CCCCC2)N(c2ccc(C)cc2)C1=S | > 26 µM (inactive) |
| O=C(Nc1nnc(-c2ccc3c(c2)CCCC3)o1)c1ccc(Cl)cc1Cl | > 26 µM (inactive) |
| c1ccc2c(c1)OCC(CNc1ncnc3sccc13)O2 (stereo not given) | > 12 µM (inactive) |
| CCOC(=O)c1c(-c2ccccc2Cl)cn2ccccc12 | > 26 µM (inactive) |
| CCc1ccc2c(c1)/C(=C/C(=O)c1cccs1)C(=O)N2 | 14 µM |
| Cc1ccc(Nc2nc(N)c([N+](=O)[O-])c(N3CCC(C)CC3)n2)cc1C | > 26 µM (inactive) |
| O=C(Nc1sc2c(c1C(=O)c1ccc(Cl)cc1)CCCC2)c1cccnc1 | > 26 µM (inactive) |
| O=C1/C(=C\c2ccccc2)CCc2c1[nH]c1ccccc21 | > 26 µM (inactive) |
| Cc1ccc(/C=C/C(=O)c2ccccc(=O)c2O)cc1C | > 26 µM (inactive) |
| CCCC(=O)NC(c1ccc(Cl)cc1)c1ccc2cccnc2c1O (stereo not given) | 3.44 µM |
| O=C(Oc1c(Cl)cc(Cl)c2cccnc12)c1cccs1 | 21.8 µM |
| CC(C)N1CCc2c(sc(NC(=O)c3nc4ccccc4s3)c2C(N)=O)C1 | > 26 µM (inactive) |
| O=C(Nc1nc(-c2ccccn2)cs1)c1ccc(Br)s1 | > 26 µM (inactive) |
| Cc1nc2ccccc2cc1OCc1ccc(F)cc1 | > 26 µM (inactive) |
| O=C(Nc1nnc(SCc2ccc(Cl)cc2)s1)c1ccc2ccccc2n1 | 12 µM |
| CC(C)COCc1ccc(O)c2ncccc12 | < 0.1 µM |
| Nc1nccnc1C(=O)Nc1nnc(SCc2ccc(Cl)cc2)s1 | > 26 µM (inactive) |
| O=C(Nc1nnc(-c2ccco2)o1)c1ccc(Cl)cc1 | > 26 µM (inactive) |
| O=C(NNC1=C(C(=O)C(F)(F)F)CCC1)c1ccc(Cl)cc1 | > 26 µM (inactive) |
| COc1cc2c(cc1NC(=O)c1ccco1)CCCC2 | > 26 µM (inactive) |
